Bridge positions count the residues as written; N and C are the ends. Square brackets hold non-standard residues; d marks the D form. Peptide text beside a SMILES is read from it. 1Nal = N[C@@H](Cc1cccc2ccccc12)C(=O)O
Columns and labels:
human Kv1.1 = target: T1, human Kv1.1 (Homo sapiens, UniProt Q09470); format: cell-based; settings: read-out: Kv1.1 Analogue Activity (IC50)
T1 construct: expressed in transfected cells; host or cells: HEK293

[1] = system: IFNγ production from human PBMCs; format: cell-based
[2] = system: CD40L on T cells in human whole blood; format: cell-based
[3] = system: IFNγ production from human PBMCs; format: cell-based; remark: listed apart in the source
[4] = rat, in vivo, iv, 1 mg/kg
[5] = system: IFN-g production in human whole blood; format: cell-based
[6] = system: IL-2 production in human whole blood; format: cell-based
[7] = system: AT-EAE model of multiple sclerosis; design: species or system Lewis rats; settings: rat, in vivo, sc
[8] = system: IL-2R on T cells in human whole blood; format: cell-based

T1 sequence (Q09470 whole entry): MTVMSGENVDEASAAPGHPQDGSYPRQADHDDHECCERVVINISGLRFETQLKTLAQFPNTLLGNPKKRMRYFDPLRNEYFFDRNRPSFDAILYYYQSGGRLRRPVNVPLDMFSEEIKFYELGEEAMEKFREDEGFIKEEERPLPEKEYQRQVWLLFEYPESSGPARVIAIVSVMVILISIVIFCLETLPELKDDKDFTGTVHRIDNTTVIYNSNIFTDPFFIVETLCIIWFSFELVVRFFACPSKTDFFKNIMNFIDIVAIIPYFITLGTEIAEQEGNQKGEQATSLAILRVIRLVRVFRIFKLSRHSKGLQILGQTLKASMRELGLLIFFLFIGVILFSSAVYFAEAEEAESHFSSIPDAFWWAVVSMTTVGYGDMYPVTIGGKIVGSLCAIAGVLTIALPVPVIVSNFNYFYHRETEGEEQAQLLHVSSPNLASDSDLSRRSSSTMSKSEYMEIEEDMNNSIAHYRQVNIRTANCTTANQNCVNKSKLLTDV

| Structure (SMILES) | IC50 (human Kv1.1) [nM] | extent of inhibition of IFNγ production [1] | thapsigargin-induced upregulation of CD40L on T cells in human whole blood (in words) [2] | extent of inhibition of IFNg production [3] | time of significant suppression of Kv1.3 current (<70 POC) by 5% serum Test solutions [4] [h] | thapsigargin-induced IFN-g production in human whole blood (in words) [5] | thapsigargin-induced IL-2 production in human whole blood (in words) [6] | average body weight lost [7] [g] | disease severity and survival (in words) [7] | onset of disease [7] [days] | thapsigargin-induced upregulation of the IL-2R on T cells in human whole blood (in words) [8] |
| --- | --- | --- | --- | --- | --- | --- | --- | --- | --- | --- | --- |
| CC[C@H](C)[C@@H]1NC(=O)[C@H](Cc2cccc3ccccc23)NC(=O)[C@@H](NC(=O)[C@H](CCCCN)NC(=O)[C@@H](NC(=O)[C@H](CC(N)=O)NC(=O)[C@@H](NC(=O)[C@@H](NC(=O)[C@@H](NC(=O)CN)C(C)C)[C@@H](C)CC)[C@@H](C)CC)C(C)C)CSSC[C@@H]2NC(=O)[C@H](CCCCN)NC(=O)CNC(=O)[C@H](Cc3ccccc3)NC(=O)[C@H](CCCNC(=N)N)NC(=O)[C@H](CCSC)NC(=O)CNC(=O)[C@H](C)NC(=O)[C@H](CCCCN)NC(=O)[C@H](CCCCN)NC(=O)[C@@H]3CSSC[C@@H](C(=O)N[C@H](C(=O)N4CCC[C@H]4C(=O)N[C@@H](CCCCN)C(=O)O)[C@@H](C)O)NC(=O)[C@H](Cc4c[nH]cn4)NC(=O)[C@H](CSSC[C@H](NC(=O)[C@H](CCC(N)=O)NC(=O)[C@H](CCCNC(=N)N)NC(=O)[C@H](CO)NC1=O)C(=O)N[C@@H](CC(C)C)C(=O)N[C@@H](CCC(=O)O)C(=O)N1CCC[C@H]1C(=O)N3)NC(=O)[C@H](CCCCN)NC(=O)CNC(=O)[C@H](CC(N)=O)NC(=O)[C@H](CCSC)NC2=O [K9Nal] (H-GVIINVKC[1Nal]ISRQCLEPCKKAGMRFGKCMNGKCHCTPK-OH; disulfide 8-28, 14-33, 18-35) | 0.292 | – | – | – | – | – | – | – | – | – | – |
| CC[C@H](C)[C@@H]1NC(=O)[C@@H](NC(=O)[C@H](CO)NC(=O)[C@@H](N)CCCNC(=N)N)CSSC[C@@H](C(=O)O)NC(=O)[C@H]([C@@H](C)O)NC(=O)CNC(=O)[C@@H]2CSSC[C@@H]3NC(=O)[C@H](CCC(N)=O)NC(=O)[C@H](Cc4ccccc4)NC(=O)[C@H](C)NC(=O)[C@H]([C@@H](C)O)NC(=O)[C@H](CSSC[C@H](NC(=O)[C@H](Cc4ccccc4)NC(=O)[C@H](CO)NC(=O)[C@H](CC(C)C)NC(=O)[C@H](CCCNC(=N)N)NC(=O)[C@H](Cc4ccc(O)cc4)NC(=O)[C@H](CCCCN)NC(=O)[C@H](CCSC)NC(=O)[C@H](CO)NC(=O)[C@H](Cc4cnc[nH]4)NC(=O)[C@H](CCCCN)NC3=O)C(=O)N[C@@H](CCCNC(=N)N)C(=O)N[C@@H](CCCCN)C(=O)N[C@@H]([C@@H](C)O)C(=O)N2)NC(=O)[C@H](CCCNC(=N)N)NC(=O)[C@H](CO)NC(=O)[C@H](CCCCN)NC(=O)[C@@H]2CCCN2C(=O)[C@H]([C@@H](C)CC)NC(=O)[C@H]([C@@H](C)O)NC(=O)[C@H](CC(=O)O)NC1=O [ShK] | – | partial inhibition | suppressed | only partial inhibition | ≤ 1 | suppressed | suppressed | 30 | developed severe disease and died | 4 | suppressed |

Source: patent US7834164B2 (priority 2006, dated 2010)
